From PubChem BioAssay AID493191 (Broad Institute, 2011)

Test system: MALME3 melanoma viability, CellTiter-Glo luminescence, 24 h
Assay: growth inhibition of MALME3 cells – cell-based, CellTiter-Glo, cherry-picked, orthogonal assay for MITF inhibitor project, dose response (AID 493191)

SMILES	AC50
CCN(CC)S(=O)(=O)c1ccc(NC(=O)c2cccnc2Cl)c(NC(=O)c2cccnc2Cl)c1	25.6 µM
CC(C)(C)c1ccc(Cn2c(=N)n(CC(O)c3ccco3)c3ccccc32)cc1 (configuration not stated)	18.3 µM
N=c1n(Cc2ccc(Cl)cc2)c2ccccc2n1CC(O)COc1ccccc1 (configuration not stated)	14.8 µM
CCOC(=O)CSC1=NC(=O)/C(=C/c2ccc(OC)cc2)S1	3.6 µM
O=C(CCl)N(c1ccccc1)C1CCCCC1	20.1 µM
O=C(CS(=O)c1ccc(C(F)(F)F)cc1[N+](=O)[O-])Oc1ccccc1 (configuration not stated)	20.7 µM
COc1cccc(CNCCc2c[nH]c3ccccc23)c1OCc1ccccc1	17.9 µM
COc1ccc2[nH]cc(C(=O)CCl)c2c1	15.1 µM
CC(C)Oc1ccc(C(CCNCc2ccc(O)cc2)c2ccccc2)cc1 (configuration not stated)	32.9 µM
O=C(Cn1ncc(Cl)c(Cl)c1=O)N1CCN(Cc2ccccc2)CC1	8.57 µM
O=C(Nc1ccc(N2CCCC2)c(Cl)c1)c1ccc([N+](=O)[O-])o1	11.1 µM
O=C(NC1=C(Nc2ccc(Cl)cc2)C(=O)c2ccccc2C1=O)c1ccccc1	20.3 µM
O=C(c1ccccc1)c1cc(Cl)ccc1N1C(=O)C=CC1=O	9.06 µM
Cc1ccccc1OCc1n(CC(=O)OC2CC(C)CCC2C(C)C)c2ccccc2[n+]1C (configuration not stated)	9.18 µM
Cc1cc(C(C)(C)C)cc(C)c1Cn1c2[n+](c3ccc(C(F)(F)F)cc31)CCCCC2	24.6 µM
CCSCCc1nnc(NC(=O)Nc2cccc(C(F)(F)F)c2)s1	29 µM
c1ccc2cc3c(NCCN4CCOCC4)ccnc3cc2c1	4.49 µM
CC(=O)Nc1sc(C)c(C)c1C(=O)OCC(=O)N(CC(C)C)c1c(N)n(Cc2ccccc2)c(=O)[nH]c1=O	6.17 µM
O=C1c2ccccc2C(=O)c2c1ncn2-c1ccccc1	19.2 µM
CC1C/C(=C\c2cccnc2)C(=O)/C(=C/c2cccnc2)C1 (configuration not stated)	3.9 µM
Cc1ccc(S(=O)(=O)/N=C2\C(=O)c3ccccc3C([O-])=C2n2cc[n+](CCC(C)C)c2)cc1	11.4 µM
O=C1C=CC(=C(c2ccc(O)cc2)c2ccc(O)cc2)C=C1	29.4 µM

SMILES	AC50
COc1ccc(NC(=O)CCC(=O)N/N=C/c2ccc([N+](=O)[O-])s2)cc1	28.2 µM
COc1ccc(-c2cc3c(nn2)-c2ccccc2C3=O)cc1	14.5 µM
COc1ccccc1CNCC(O)Cn1c2ccccc2c2ccccc21 (configuration not stated)	20 µM
CC1CCC(C(C)C)C(OC(=O)Cn2c(-c3ccccc3)[n+](C)c3ccccc32)C1 (configuration not stated)	9.63 µM
Cc1cc(C)c2c(N)c3cccc(C)c3nc2n1	27.9 µM
CCOCCCNC(=O)/C(C#N)=C/c1ccc([N+](=O)[O-])o1	12.6 µM
C=C1C(=O)O[C@@H]2[C@H]1[C@@H](OC(=O)/C(C)=C/C)C/C(C)=C\C(=O)/C=C(\C)[C@@H]2O	6.41 µM
Cc1ccc(NC(=O)CCC(=O)N/N=C/c2ccc([N+](=O)[O-])o2)cc1C	21.9 µM
CCN1c2ccccc2NC2N=C(OC)C(c3ccccc3)C21 (configuration not stated)	7.13 µM
COc1ccc(C)c2sc(N(CCN(C)C)C(=O)/C=C/c3cccs3)nc12	25.1 µM
O=[N+]([O-])c1ccc(/C=N/n2cnc3ccccc32)s1	8.99 µM
O=C(COC(=O)c1ccccc1C(=O)c1ccc(Cl)c([N+](=O)[O-])c1)NC1CC1	15.6 µM
CCS(=O)(=O)c1ccc(N=Nc2ccc(O)c3ncccc23)c(OC)c1	5.85 µM
O=C(N/N=C/c1ccc([N+](=O)[O-])o1)c1ccccc1-n1cccc1	32.1 µM
CCN1CCN(c2ccc(S(=O)(=O)N3CCCCC3)cc2NC(=O)/C=C/c2cccc(OC)c2OC)CC1	29.7 µM
CC(C)(C)NC(=O)CCN(/N=C/c1ccc([N+](=O)[O-])o1)C1=NS(=O)(=O)c2ccccc21	31.9 µM
C/C(=N/NC(=O)C(O)(c1ccccc1)c1ccccc1)c1ccc([N+](=O)[O-])o1	34.1 µM
O=C(Nc1ccc2oc(-c3cccnc3)nc2c1)c1ccc([N+](=O)[O-])o1	25.9 µM
COc1cc(NC(=O)c2ccc([N+](=O)[O-])o2)ccc1NC(=O)c1cccs1	13.1 µM
CN(C)c1nc(C=C(C#N)C#N)c(Cl)n1-c1ccc(F)cc1	21.2 µM
Cc1ccc(Cn2c(=N)n(CC(=O)c3ccc([N+](=O)[O-])cc3)c3ccccc32)cc1	18.6 µM
C#CCCc1ccccc1/C=[N+](/C)[O-]	28.8 µM

SMILES	AC50
COc1ccc(S(=O)(=O)N2CCCCC2)cc1NC(=O)c1ccc([N+](=O)[O-])o1	14.3 µM
Cc1ccc(NC(=O)Cn2ncc(Cl)c(Cl)c2=O)cc1S(=O)(=O)N1CCCCC1	15.8 µM
CCCCN(C)CC(O)Cn1cc(/C=C/C(=O)c2cccs2)c2ccccc21 (configuration not stated)	18.6 µM
Nc1nc2ccccc2n1/N=C/c1ccc([N+](=O)[O-])s1	16.3 µM
O=c1c(Cl)c2oc3ccccc3nc-2c2ccccc12	14.3 µM
O=C1C(Cl)=C(N2CCN(c3ccccc3[N+](=O)[O-])CC2)C(=O)c2ccccc21	18.2 µM
Cc1oc(-c2ccc(Cl)cc2)nc1CN1CCC(C(=O)NCCCN2CCCC(C)C2)CC1 (configuration not stated)	24.4 µM
Nc1c(N(CCC2=CCCCC2)C(=O)COc2ccc(F)cc2)c(=O)[nH]c(=O)n1Cc1ccccc1	15.8 µM
Cc1ccc(C)c(NC(=O)/C(C#N)=C/c2cn(CC(=O)NCc3ccco3)c3ccccc23)c1	18.6 µM
CCN(CC)S(=O)(=O)c1ccc(N2CCCC2)c(NC(=O)c2ccc([N+](=O)[O-])o2)c1	19.5 µM
CCc1cc[n+](C2=C([O-])c3ccccc3C(=O)/C2=N\S(=O)(=O)c2cccs2)cc1	4.51 µM
O=C(/C=C/c1cccc([N+](=O)[O-])c1)c1cccs1	33.1 µM
Cc1nc2ccccc2n1/N=C/c1ccc([N+](=O)[O-])s1	26.4 µM
CC(=O)OCCNc1cc(Sc2nc3ccccc3[nH]2)c2nonc2c1[N+](=O)[O-]	13.6 µM
O=c1c(Cl)c(Cl)cnn1-c1ccccc1	5.84 µM
CCn1c(/C=C/Nc2ccccc2)[n+](CC)c2cc(Cl)c(Cl)cc21	29.6 µM
Cc1cccc(NC2=C(NC(=O)c3ccccc3)C(=O)c3ccccc3C2=O)c1	25.3 µM
COc1ccc(-c2cc(-c3ccccc3)c(C#N)c(S(C)=O)n2)cc1 (configuration not stated)	23.8 µM
OC(CNCC(c1ccc(Cl)cc1Cl)c1c[nH]c2ccccc12)c1ccccc1 (configuration not stated)	19.1 µM
Cc1c(C(=O)Nc2ccc(S(=O)(=O)N(C)C3CCN(C)CC3)cc2)oc2c(Cl)cccc12	26.4 µM
C=Cc1ncc(OC)c2c1[nH]c1ccccc12	31.5 µM
Cc1[nH]nc2nc(SCC(=O)NCCC3=CCCCC3)n(-c3ccc(Br)cc3)c(=N)c12	20.5 µM

SMILES	AC50
CC(NC(=O)c1ccc([N+](=O)[O-])o1)C12CC3CC(CC(C3)C1)C2 (configuration not stated)	31.9 µM
O=C(COc1ccccc1)N/N=C/c1ccc([N+](=O)[O-])o1	18.6 µM
CCOC(=O)CCc1ccc(NC(=O)/C=C/c2ccc([N+](=O)[O-])o2)cc1	13.9 µM
CC(=O)c1c(C)oc2c1C(=O)c1ccccc1C2=O	21.2 µM
O=C(Cn1ncc(Cl)c(Cl)c1=O)N1CCOCC1	20.6 µM
Cn1cc([N+](=O)[O-])c(C(=O)Nc2nc(-c3ccc(Cl)cc3)cs2)n1	26.5 µM
CC(C)Oc1ccc(C(CCN)C2CCCCC2)cc1 (configuration not stated)	14.6 µM
COc1cc(/C=N/N=C(N)N)ccc1OCc1ccc(Cl)cc1	19.9 µM
COc1ccccc1NS(=O)(=O)c1cccc(C(=O)N/N=C/c2ccc([N+](=O)[O-])o2)c1	14.6 µM
O=C(Cn1ncc(Cl)c(Cl)c1=O)Nc1ccc2c(c1)OCO2	25.1 µM
Cc1ccccc1OCC(=O)N/N=C/c1ccc([N+](=O)[O-])o1	26.3 µM
CC1CCC(C(C)C)C(OC(=O)Cn2c(-c3ccc(F)cc3)[n+](C)c3ccccc32)C1 (configuration not stated)	12.5 µM
COC(=O)c1ccc2c(c1O)C(=O)c1ccccc1C2=O	2.82 µM
O=c1c(Cl)c(Cl)cnn1Cc1ccc(F)cc1	31.6 µM
CC(=O)Nc1ccc(S(=O)(=O)NC2=C(N3CCN(C)CC3)C(=O)c3ccccc3C2=O)cc1	8.92 µM
COc1cc(/C=N/NC(N)=O)c(Br)cc1OCC(=O)Nc1ccccc1C	29.4 µM
O=C(Nc1nc(-c2ccccn2)cs1)c1ccc([N+](=O)[O-])o1	28.5 µM
COc1ccc(C(=O)/C=C/C(=O)N(CC(=O)NC2CCCCC2)Cc2cccs2)c(O)c1	5.25 µM
O=C(N/N=C/c1ccc(O)c2ncccc12)c1cccc(Br)c1	14.7 µM
Cc1ccc2[nH]c(=O)c(CN(CCCN(C)C)C(=O)Nc3cccc(Cl)c3)cc2c1	24.9 µM
CC1=NNC(=O)/C1=C\c1cn(-c2ccccc2)nc1-c1ccc(F)cc1	25.9 µM
COc1cc(NC(=O)COc2ccccc2[N+](=O)[O-])ccc1NC(=O)c1cccs1	26.7 µM

SMILES	AC50
CCOC(=O)c1nnn(-c2ccc([N+](=O)[O-])cc2[N+](=O)[O-])c1C	16 µM
O=C(CCl)N1N=C(c2ccco2)CC1c1cccs1 (configuration not stated)	23 µM
COc1cccc2sc(N3CCN(C(=O)c4ccc([N+](=O)[O-])o4)CC3)nc12	23.4 µM
Cc1ccccc1C(=O)N1CCN(c2ccc(NC(=O)c3ccc([N+](=O)[O-])o3)cc2)CC1	9.64 µM
CCCNC(=O)COC(=O)c1ccccc1C(=O)c1ccc(Cl)c([N+](=O)[O-])c1	16.3 µM
O=C(Nc1ccccc1N1CCN(C(=O)c2ccccc2)CC1)c1ccc([N+](=O)[O-])o1	27.1 µM
CS(=O)(=O)c1ccc(S(=O)CC(=O)OCc2ccccc2)c([N+](=O)[O-])c1 (configuration not stated)	20 µM
O=C(N/N=C/c1ccc([N+](=O)[O-])o1)c1ccc(O)cc1	10.9 µM
CCOc1c(Br)cc(CNC2CCCCCCC2)cc1OC	27.6 µM
CC(C)C(=O)N1CCN(c2ccc(NC(=O)c3ccc([N+](=O)[O-])o3)cc2Cl)CC1	19.2 µM
CC1(C(=O)N/N=C/c2ccc([N+](=O)[O-])o2)CC1(Br)Br (configuration not stated)	34 µM
CS(=O)(=O)c1ncc(Cl)c(C(=O)Nc2ccc(N3CCOCC3)cc2)n1	10.7 µM
CC(=O)Nc1ccc(Nc2c3ccccc3nc3ccccc23)cc1	25.2 µM
CCN(CC)CCC(=O)N1C/C(=C/c2ccccc2)C(=O)/C(=C\c2ccccc2)C1	28.3 µM
CN(C)S(=O)(=O)c1ccc(-c2csc(N/N=C/c3ccc(O)cc3)n2)cc1	21.2 µM
O=C(Cc1ccc2c(c1)OCO2)NN=Cc1ccc([N+](=O)[O-])o1	19.1 µM
COC1=C(Nc2ccc(O)cc2)C(=O)c2ccccc2C1=O	14.3 µM
CC[n+]1c(-c2ccccc2)c2cc(N)ccc2c2ccc(N)cc21	23.3 µM
Cc1cc(C)cc(OCC(=O)N/N=C/c2ccc([N+](=O)[O-])o2)c1	22.9 µM
